biological target: Human recombinant carboxy-terminal his-tagged LDHA (amino acids 2-332) (Homo sapiens, UniProt P00338); assay: LDHA enzyme inhibition assay (NADH fluorescence); settings: LDHA IC50 (μM), 1 nM LDHA, NADH and pyruvate, stereochemistry of tested sample given

Structure (SMILES)	IC50
CC(O)c1cccc(Nc2cccc(C3(c4ccsc4)CC(=O)C(Sc4ccccc4Cl)C(=O)N3)n2)c1 (stereo not shown) [Example 307, 3-((2-chlorophenyl)thio)-6-(6-((3-(1-hydroxy-ethyl)phenyl)amino)pyridin-2-yl)-6-(thiophen-3-yl)piperidine-2,4-dione]	0.095 µM
O=C1CC(c2ccsc2)(c2cccc(OCC3CCCCC3)n2)NC(=O)C1Sc1ccccc1Cl (stereo not shown) [Example 308, 3-((2-chlorophenyl)thio)-6-(6-(cyclohexylmethoxy)pyridin-2-yl)-6-(thiophen-3-yl)piperidine-2,4-dione]	0.825 µM
CN(c1cccc(CO)c1)c1cccc(C2(c3ccsc3)CC(=O)C(Sc3ccccc3Cl)C(=O)N2)n1 (stereo not shown) [Example 309, 3-((2-chlorophenyl)thio)-6-(6-((3-(hydroxymethyl)phenyl)(methyl)amino)pyridin-2-yl)-6-(thiophen-3-yl)piperidine-2,4-dione]	0.408 µM
CN(c1cccc(CO)c1)c1cccc(C2(c3ccsc3)CC(=O)C(Sc3ccccc3Cl)C(=O)N2)n1 (stereo not shown) [Example 310, 3-((2-chlorophenyl)thio)-6-(6-((3-(hydroxymethyl)phenyl)(methyl)amino)pyridin-2-yl)-6-(thiophen-3-yl)piperidine-2,4-dione]	0.365 µM
CC(Oc1cccc(C2(c3ccsc3)CC(=O)C(Sc3ccccc3Cl)C(=O)N2)n1)c1ccc(Cl)cc1 (stereo not shown) [Example 311, 6-(6-(1-(4-chlorophenyl)ethoxy)pyridin-2-yl)-3-((2-chlorophenyl)thio)-6-(thiophen-3-yl)piperidine-2,4-dione]	0.59 µM
CC(Oc1cccc(C2(c3ccsc3)CC(=O)C(Sc3ccccc3Cl)C(=O)N2)n1)c1cccc(F)c1 (stereo not shown) [Example 312, 3-((2-chlorophenyl)thio)-6-(6-(1-(3-fluorophenyl)ethoxy)pyridin-2-yl)-6-(thiophen-3-yl)piperidine-2,4-dione]	0.119 µM
CC(Oc1cccc(C2(c3ccsc3)CC(=O)C(Sc3ccccc3Cl)C(=O)N2)n1)c1ccc(F)c(F)c1 (stereo not shown) [Example 313, 3-((2-chlorophenyl)thio)-6-(6-(1-(3,4-difluoro-phenyl)ethoxy)pyridin-2-yl)-6-(thiophen-3-yl) piperidine-2,4-dione]	0.105 µM
O=C1CC(c2ccsc2)(c2cccc(Oc3ccc(C(F)(F)F)cc3)n2)NC(=O)C1Sc1ccccc1Cl (stereo not shown) [Example 315, 3-(2-chlorophenyl)sulfanyl-6-(3-thienyl)-6-[6-[4-(trifluoromethyl)phenoxy]-2-pyridyl]piperidine-2,4-dione]	0.014 µM
O=C1CC(c2ccsc2)(c2cccc(Nc3ccc(F)nc3)n2)NC(=O)C1Sc1ccccc1Cl [Example 317, (6R)-3-(2-chlorophenyl) sulfanyl-6-[6-[(6-fluoro-3-pyridyl)amino]-2-pyridyl]-6-(3-thienyl) piperidine-2,4-dione]	0.225 µM
O=C1C[C@](c2ccc(N3CCOCC3)cc2)(c2cccc(Oc3ccc(F)c(F)c3)n2)NC(=O)C1Sc1ccccc1Cl (stereo partly drawn) [Example 318, (6S)-3-(2-chlorophenyl) sulfanyl-6-[6-(3,4-difluoro-phenoxy)-2-pyridyl]-6-(4-morpholinophenyl) piperidine-2,4-dione]	0.01 µM
CC(C)c1cc(F)ccc1Oc1cccc([C@@]2(c3ccsc3)CC(=O)C(Sc3ccccc3Cl)C(=O)N2)n1 (stereo partly drawn) [Example 319, (6S)-3-(2-chlorophenyl) sulfanyl-6-[6-(4-fluoro-2-isopropyl-phenoxy)-2-pyridyl]-6-(3-thienyl) piperidine-2,4-dione]	0.197 µM
COC1CCC(Oc2cccc(C3(c4ccsc4)CC(=O)C(Sc4ccccc4Cl)C(=O)N3)n2)CC1 (stereo not shown) [Example 320, 5-(2-chlorophenyl)sulfanyl-4-hydroxy-2-[6-(4-methoxycyclohexoxyl)-2-pyridyl]-2-(3-thienyl)-1,3-dihydropyridin-6-one]	0.093 µM
O=C1CC(c2ccsc2)(c2cccc(OC3CCCc4ccccc43)n2)NC(=O)C1Sc1ccccc1Cl (stereo not shown) [Example 321, 5-(2-chlorophenyl)sulfanyl-4-hydroxy-2-(6-tetralin-1-yloxy-2-pyridyl)-2-(3-thienyl)-1,3-dihydro-pyridin-6-one]	0.246 µM
O=C1CC(c2ccsc2)(c2cccc(Oc3ccc(F)nc3Cl)n2)NC(=O)C1Sc1ccccc1Cl (stereo not shown) [Example 324, 6-[6-[(2-chloro-6-fluoro-3-pyridyl)oxy]-2-pyridyl]-3-(2-chlorophenyl) sulfanyl-6-(3-thienyl) piperidine-2,4-dione]	0.084 µM
O=C1C[C@](c2ccsc2)(c2cccc(Oc3ccc(Br)cc3Cl)n2)NC(=O)C1Sc1ccccc1Cl (stereo partly drawn) [Example 327, (6S)-6-[6-(4-bromo-2-chloro-phenoxy)-2-pyridyl]-3-(2-chlorophenyl) sulfanyl-6-(3-thienyl) piperidine-2,4-dione]	0.035 µM
O=C1CC(c2ccsc2)(c2ccc(N3CCOCC3)c(F)c2)NC(=O)C1Sc1ccccc1Cl (stereo not shown) [Example 328, 3-(2-chlorophenyl)sulfanyl-6-(3-fluoro-4-morpholino-phenyl)-6-(3-thienyl)piperidine-2,4-dione]	0.054 µM
O=C1CC(c2ccsc2)(c2cccc(Nc3ccc(F)c(F)c3Cl)n2)NC(=O)C1Sc1ccccc1Cl (stereo not shown) [Example 329, 6-[6-(2-chloro-3,4-difluoro-anilino)-2-pyridyl]-3-(2-chlorophenyl)sulfanyl-6-(3-thienyl)piperidine-2,4-dione]	0.037 µM
O=C1C[C@](c2ccsc2)(c2cccc(Oc3ccc(C(F)(F)F)cc3)n2)NC(=O)C1Sc1ccccc1Cl (stereo partly drawn) [Example 330, (6S)-3-(2-chlorophenyl) sulfanyl-6-(3-thienyl)-6-[6-[4-(trifluoromethyl)phenoxy]-2-pyridyl] piperidine-2,4-dione]	0.041 µM
CC(Nc1cccc(C2(c3ccsc3)CC(=O)C(Sc3ccccc3Cl)C(=O)N2)n1)C1CC1 (stereo not shown) [Example 331]	0.148 µM
CC(Nc1cccc(C2(c3ccsc3)CC(=O)C(Sc3ccccc3Cl)C(=O)N2)n1)C1CC1 (stereo not shown) [Example 332]	0.168 µM
O=C1CC(c2ccsc2)(c2cccc(OC3CCCc4c(F)cccc43)n2)NC(=O)C1Sc1ccccc1Cl (stereo not shown) [Example 333, 5-(2-chlorophenyl)sulfanyl-2-[6-(5-fluorotetralin-1-yl)oxy-2-pyridyl]-4-hydroxy-2-(3-thienyl)-1,3-dihydropyridin-6-one]	0.198 µM
COc1cc(F)ccc1Oc1cccc(C2(c3ccsc3)CC(=O)C(Sc3ccccc3Cl)C(=O)N2)n1 (stereo not shown) [Example 334, 3-(2-chlorophenyl)sulfanyl-6-[6-(4-fluoro-2-methoxy-phenoxy)-2-pyridyl]-6-(3-thienyl)piperidine-2,4-dione]	0.739 µM
Cc1cc(Nc2cccc([C@@]3(c4ccsc4)CC(=O)C(Sc4ccccc4Cl)C(=O)N3)n2)cnc1F (stereo partly drawn) [Example 335, (6S)-3-(2-chlorophenyl) sulfanyl-6-[6-[(6-fluoro-5-methyl-3-pyridyl)amino]-2-pyridyl]-6-(3-thienyl) piperidine-2,4-dione]	0.002 µM
O=C1CC(c2ccsc2)(c2cccc(Oc3ccccc3)n2)NC(=O)C1Sc1ccccc1Cl [Example 336, (6R)-3-(2-chlorophenyl) sulfanyl-6-(6-phenoxy-2-pyridyl)-6-(3-thienyl) piperidine-2,4-dione]	0.368 µM
O=C1CC(c2cccc(Oc3ccc(F)cc3)n2)(c2ccccc2O)NC(=O)C1Sc1ccccc1Cl (stereo not shown) [Example 338, 5-(2-chlorophenyl)sulfanyl-2-[6-(4-fluorophenoxy)-2-pyridyl]-4-hydroxy-2-(2-hydroxyphenyl)-1,3-dihydropyridin-6-one]	0.009 µM
